Assay results taken from US6706663B2, “Herbicidal 3-heterocyclic substituted benzisothiazole and benzisoxazole compounds” (Wyeth, priority 2000, dated 2004).

Experiments:
[1] = system: ABUTH (Abutilon theophrasti); experiment: Postemergence herbicidal evaluation; format: in vivo, Medic.
Summary of the method: (§1)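 Seedlings grown for about two weeks were sprayed postemergence and then kept under standard greenhouse care. Injury was rated visually 4–5 weeks after treatment on a 0–9 scale against untreated controls, and ratings from repeat tests were averaged.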

ORYSAT (Rice, Tebonnet) [2] = experiment: Preemergence herbicidal evaluation; format: in vivo, Oryza sativa, (L.) Tebonnet; details: rated 4-5 weeks after treatment
[3] = system: TRZAWR (Wheat, Winter, cv Riband); experiment: Postemergence herbicidal evaluation; format: in vivo, Triticum aestivum
Summary of the method: as §1

[4] = system: CHEAL (Chenopodium album); experiment: Preemergence herbicidal evaluation; format: in vivo, L.; details: rated 4-5 weeks after treatment
Summary of the method: (§2)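 Seeds mixed with potting soil were planted atop about one inch of soil, then sprayed with test compound in aqueous acetone. Cups were kept in the greenhouse and rated visually 4–5 weeks after treatment on a 0–9 scale against untreated control.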

[5] = system: CASOB (Cassia obtusifolia); experiment: Preemergence herbicidal evaluation; format: in vivo, L.; details: rated 4-5 weeks after treatment
Summary of the method: as §2

[6] = system: AMBEL (Ambrosia artemisifolia); experiment: Preemergence herbicidal evaluation; format: in vivo, L.; details: rated 4-5 weeks after treatment
Summary of the method: as §2

ORYSAT (Rice, Tebonnet) [7] = experiment: Postemergence herbicidal evaluation; format: in vivo, Oryza sativa, (L.) Tebonnet
Summary of the method: as §1

CYPIR (Cyperus iria) = experiment: Flooded paddy, preemergence weed control; format: in vivo; details: rated 3-4 weeks after treatment, 0-9 rating scale
Summary of the method: (§3)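 Under paddy conditions, seeds or vegetative propagules go into the top 0.5 cm of silt loam; the soil is then flooded to 1.5–3 cm and kept so. Treated pots stay in a greenhouse; response is rated 0-9 visually versus control.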

[8] = system: CHEAL (Chenopodium album); experiment: Postemergence herbicidal evaluation; format: in vivo, L.
Summary of the method: as §1

[9] = system: CASOB (Cassia obtusifolia); experiment: Postemergence herbicidal evaluation; format: in vivo, L.
Summary of the method: as §1

[10] = system: AMBEL (Ambrosia artemisifolia); experiment: Postemergence herbicidal evaluation; format: in vivo, L.
Summary of the method: as §1

[11] = system: IPOHE (Ipomoea hederacea); experiment: Postemergence herbicidal evaluation; format: in vivo, (L.) Jacq.
Summary of the method: as §1

[12] = system: SAGPY (Sagittaria pygmaea); experiment: Flooded paddy, preemergence weed control; format: in vivo, L.; details: rated 3-4 weeks after treatment, 0-9 rating scale
Summary of the method: as §3

[13] = system: CYPSE (Cyperus serotinus); experiment: Flooded paddy, preemergence weed control; format: in vivo, Rottb.; details: rated 3-4 weeks after treatment, 0-9 rating scale
Summary of the method: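 Seeds or propagules were planted 0.5 cm deep in silt loam and flooded to 1.5–3 cm. Compounds in 50/50 v/v aqueous/acetone were pipetted into the flood water at about 0.0080 to 0.1250 kg/ha. After 3–4 weeks in the greenhouse, effect was rated visually on a 0–9 scale versus untreated control.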

GALAP (Galium aparine) = experiment: Postemergence herbicidal evaluation; format: in vivo
Summary of the method: as §1

[14] = system: ECHCG (Echinochloa crus-galli); experiment: Preemergence herbicidal evaluation; format: in vivo, (L.) Beau; details: rated 4-5 weeks after treatment
Summary of the method: as §2

SETVI (Setaria viridis) [15] = experiment: Preemergence herbicidal evaluation; format: in vivo, (L.) Beau; details: rated 4-5 weeks after treatment
Summary of the method: as §2

[16] = system: MOOVA (Monochoria vaginalis); experiment: Flooded paddy, preemergence weed control; format: in vivo, Presl.; details: rated 3-4 weeks after treatment, 0-9 rating scale
Summary of the method: as §3

SETVI (Setaria viridis) [17] = experiment: Postemergence herbicidal evaluation; format: in vivo, (L.) Beau
Summary of the method: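 Ratings use a 0-9 visual scale covering stand, vigor, malformation, size, chlorosis and appearance versus a control, scored 4-5 weeks post-spray. Roughly two-week-old seedlings received about 0.0040-1.000 kg/ha active, applied in 50/50 acetone/water with 0.5% TWEEN 20. Multiple tests per compound were averaged.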

SMILES: C[C@H]1OC(c2nsc3ccc(-n4c(=O)cc(C(F)(F)F)n(C)c4=O)cc23)O[C@@H]1C [Compound 48, 3-[3-[(4R,5R)-4,5-dimethyl-1,3-dioxolan-2-yl]-1,2-benzisothiazol-5-yl]-1-methyl-6-(trifluoromethyl)uracil]
- Postemergence herbicidal rating, ABUTH ([1]; rate 0.0320 kg/ha): 9.0
- Postemergence herbicidal rating, ABUTH ([1]; rate 0.0620 kg/ha): 9.0
- Preemergence herbicidal rating ORYSAT (ORYSAT (Rice, Tebonnet) [2]; Rate 0.0620 kg/ha): 7.5
- Preemergence herbicidal rating ORYSAT (ORYSAT (Rice, Tebonnet) [2]; Rate 0.1250 kg/ha): 8.0
- Preemergence herbicidal rating ORYSAT (ORYSAT (Rice, Tebonnet) [2]; Rate 0.2500 kg/ha): 9.0
- Postemergence herbicidal rating, TRZAWR ([3]; rate 0.0320 kg/ha): 5.0
- Postemergence herbicidal rating, TRZAWR ([3]; rate 0.0620 kg/ha): 5.7
- Preemergence herbicidal rating CHEAL ([4]; Rate 0.0620 kg/ha): 9.0
- Preemergence herbicidal rating CHEAL ([4]; Rate 0.1250 kg/ha): 9.0
- Preemergence herbicidal rating CHEAL ([4]; Rate 0.2500 kg/ha): 9.0
- Preemergence herbicidal rating CASOB ([5]; Rate 0.0620 kg/ha): 5.0
- Preemergence herbicidal rating CASOB ([5]; Rate 0.1250 kg/ha): 7.5
- Preemergence herbicidal rating CASOB ([5]; Rate 0.2500 kg/ha): 9.0
- Preemergence herbicidal rating AMBEL ([6]; Rate 0.0620 kg/ha): 9.0
- Preemergence herbicidal rating AMBEL ([6]; Rate 0.1250 kg/ha): 9.0
- Preemergence herbicidal rating AMBEL ([6]; Rate 0.2500 kg/ha): 9.0
- Postemergence herbicidal rating, ORYSAT (ORYSAT (Rice, Tebonnet) [7]; rate 0.0320 kg/ha): 5.5
- Postemergence herbicidal rating, ORYSAT (ORYSAT (Rice, Tebonnet) [7]; rate 0.0620 kg/ha): 6.0
- herbicidal rating, CYPIR (CYPIR (Cyperus iria); rate 0.0080 kg/ha): 0.0
- herbicidal rating, CYPIR (CYPIR (Cyperus iria); rate 0.0320 kg/ha): 8.0
- herbicidal rating, CYPIR (CYPIR (Cyperus iria); rate 0.1250 kg/ha): 9.0
- Postemergence herbicidal rating, CHEAL ([8]; rate 0.0320 kg/ha): 9.0
- Postemergence herbicidal rating, CHEAL ([8]; rate 0.0620 kg/ha): 9.0
- Postemergence herbicidal rating, CASOB ([9]; rate 0.0320 kg/ha): 1.0
- Postemergence herbicidal rating, CASOB ([9]; rate 0.0620 kg/ha): 7.0
- Postemergence herbicidal rating, AMBEL ([10]; rate 0.0320 kg/ha): 9.0
- Postemergence herbicidal rating, AMBEL ([10]; rate 0.0620 kg/ha): 9.0
- Postemergence herbicidal rating, IPOHE ([11]; rate 0.0320 kg/ha): 9.0
- Postemergence herbicidal rating, IPOHE ([11]; rate 0.0620 kg/ha): 9.0
- herbicidal rating, SAGPY ([12]; rate 0.0080 kg/ha): 0.0
- herbicidal rating, SAGPY ([12]; rate 0.0320 kg/ha): 7.5
- herbicidal rating, SAGPY ([12]; rate 0.1250 kg/ha): 9.0
- herbicidal rating, CYPSE ([13]; rate 0.0320 kg/ha): 9.0
- herbicidal rating, CYPSE ([13]; rate 0.1250 kg/ha): 9.0
- Postemergence herbicidal rating, GALAP (GALAP (Galium aparine); rate 0.0320 kg/ha): 9.0
- Postemergence herbicidal rating, GALAP (GALAP (Galium aparine); rate 0.0620 kg/ha): 9.0
- Preemergence herbicidal rating ECHCG ([14]; Rate 0.0620 kg/ha): 9.0
- Preemergence herbicidal rating ECHCG ([14]; Rate 0.1250 kg/ha): 9.0
- Preemergence herbicidal rating ECHCG ([14]; Rate 0.2500 kg/ha): 9.0
- Preemergence herbicidal rating SETVI (SETVI (Setaria viridis) [15]; Rate 0.0620 kg/ha): 9.0
- Preemergence herbicidal rating SETVI (SETVI (Setaria viridis) [15]; Rate 0.1250 kg/ha): 9.0
- Preemergence herbicidal rating SETVI (SETVI (Setaria viridis) [15]; Rate 0.2500 kg/ha): 9.0
- herbicidal rating, MOOVA ([16]; rate 0.0320 kg/ha): 9.0
- herbicidal rating, MOOVA ([16]; rate 0.1250 kg/ha): 9.0
- Postemergence herbicidal rating, SETVI (SETVI (Setaria viridis) [17]; rate 0.0320 kg/ha): 9.0
- Postemergence herbicidal rating, SETVI (SETVI (Setaria viridis) [17]; rate 0.0620 kg/ha): 9.0
